Results as given in patent US9447100B2, “Substituted pyrazolo[1,5-A] pyrimidines as calcium receptor modulating agents” (Takeda Pharmaceutical Company Limited, priority 2002, dated 2016).
Counter-ions that a name gives are not always drawn.

Structure (SMILES)	melting point
CCC(CC)(NC(=O)c1cnn2c1NC(c1ccccc1)CC2(C)C)c1ccc(-c2ccoc2)cc1 (stereo not drawn) [Example 585, N-(1-ethyl-1-(4-(3-furyl)phenyl)propyl)-7,7-dimethyl-5-phenyl-4,5,6,7-tetrahydropyrazolo[1,5-a]pyrimidine-3-carboxamide]	185 to 186 °C
CCC(CC)(CCOC)NC(=O)c1cnn2c1NC(c1ccccc1)CC2(C)C (stereo not drawn) [Example 664, N-(1,1-diethyl-3-methoxypropyl)-7,7-dimethyl-5-phenyl-4,5,6,7-tetrahydropyrazolo[1,5-a]pyrimidine-3-carboxamide]	129 to 130 °C
CCC(CC)(NC(=O)c1c(C)nn2c1NC(c1ccccc1F)CC2(C)C)c1ccc(C)cc1 (stereo not drawn) [Example 962, N-[1-ethyl-1-(4-methylphenyl)propyl]-5-(2-fluorophenyl)-2,7,7-trimethyl-4,5,6,7-tetrahydropyrazolo[1,5-a]pyrimidine-3-carboxamide]	139 to 140 °C
CCC(CC)(NC(=O)c1cnn2c1NC(c1ccccc1)CC2(C)C)c1ccc(CCCO)cc1 (stereo not drawn) [Example 763, N-(1-ethyl-1-(4-(3-hydroxy-propyl)phenyl)propyl)-7,7-dimethyl-5-phenyl-4,5,6,7-tetrahydropyrazolo[1,5-a]pyrimidine-3-carboxamide]	194 to 195 °C
Cc1nn2c(c1C(=O)O)NC(c1ccccc1)CC2(C)C (single isomer, unassigned; (+)) [Example 1020, (+)-2,7,7-trimethyl-5-phenyl-4,5,6,7-tetrahydropyrazolo[1,5-a]pyrimidine-3-carboxylic acid]	190 to 192 °C
CCC(CC)(NC(=O)c1c(OCCO)nn2c1NC(c1ccccc1)CC2(C)C)c1ccc(C)cc1 (stereo not drawn) [Example 975, N-(1-ethyl-1-(4-methylphenyl)propyl)-2-(2-hydroxyethoxy)-7,7-dimethyl-5-phenyl-4,5,6,7-tetrahydropyrazolo[1,5-a]pyrimidine-3-carboxamide]	115 to 117 °C
CCCCC(CCCC)(NC(=O)c1cnn2c1NC(c1ccccc1)CC2(C)C)c1ccc(C(F)(F)F)cc1 (stereo not drawn) [Example 411, N-(1-butyl-1-(4-(trifluoromethyl)phenyl)pentyl)-7,7-dimethyl-5-phenyl-4,5,6,7-tetrahydropyrazolo[1,5-a]pyrimidine-3-carboxamide]	113 to 114 °C
CCC(CC)(NC(=O)c1c(SC)nn2c1NC(c1ccccc1)CC2(C)C)c1ccc(Cl)cc1 (stereo not drawn) (as salt: HCl) [Example 780, N-(1-(4-chlorophenyl)-1-ethylpropyl)-7,7-dimethyl-2-(methylthio)-5-phenyl-4,5,6,7-tetrahydropyrazolo[1,5-a]pyrimidine-3-carboxamide]	115 to 117 °C
O=C(NC1C2CC3CC(C2)CC1C3)c1cnn2c1NC(c1ccc3ccccc3c1)CC2C(F)(F)F (stereo not drawn) [Example 90, N-(2-adamantyl)-5-(2-naphthyl)-7-(trifluoromethyl)-4,5,6,7-tetrahydropyrazolo[1,5-a]pyrimidine-3-carboxamide]	280 to 282 °C
CCC(CC)(NC(=O)c1cnn2c1NC(c1ccccc1)CC2(C)C)c1ccc(N(C)C)cc1 (stereo not drawn) [Example 778, N-(1-(4-(dimethylamino)phenyl)-1-ethylpropyl)-7,7-dimethyl-5-phenyl-4,5,6,7-tetrahydropyrazolo[1,5-a]pyrimidine-3-carboxamide]	128 to 129 °C
NC(=O)c1cnn2c1N[C@H](c1ccccc1)C[C@@H]2C(F)(F)F (stereo in doubt) [Example 403, 5-phenyl-7-(trifluoromethyl)-4,5,6,7-tetrahydropyrazolo[1,5-a]pyrimidine-3-carboxamide]	277 to 278 °C
C#CC1(NC(=O)c2cnn3c2NC(c2ccccc2)CC3(C)C)CCCCC1 (stereo not drawn) [Example 587, N-(1-ethynylcyclohexyl)-7,7-dimethyl-5-phenyl-4,5,6,7-tetrahydropyrazolo[1,5-a]pyrimidine-3-carboxamide]	201 to 202 °C
CCC(CC)(NC(=O)c1c(C)nn2c1NC(c1cccc(F)c1)CC2(C)C)c1ccc(C)cc1 (stereo not drawn) (as salt: HCl) [Example 972, N-(1-ethyl-1-(4-methylphenyl)propyl)-5-(3-fluorophenyl)-2,7,7-trimethyl-4,5,6,7-tetrahydropyrazolo[1,5-a]pyrimidine-3-carboxamide]	152 to 155 °C
CC(C)(NC(=O)c1cnn2c1NC(c1ccccc1)CC2(C)C)c1ccc(C(F)(F)F)cc1 (stereo not drawn) [Example 427, 7,7-dimethyl-N-(1-methyl-1-(4-(trifluoromethyl)phenyl)ethyl)-5-phenyl-4,5,6,7-tetrahydropyrazolo[1,5-a]pyrimidine-3-carboxamide]	182 to 183 °C
CCC(CC)(NC(=O)c1c(C)nn2c1N[C@@H](c1ccccc1)CC2(C)C)c1ccccc1F (as salt: HCl) [Example 1063, (5R)-N-(1-ethyl-1-(2-fluorophenyl)propyl)-2,7,7-trimethyl-5-phenyl-4,5,6,7-tetrahydropyrazolo[1,5-a]pyrimidine-3-carboxamide]	180 to 182 °C
CCC(CC)(NC(=O)c1cnn2c1NC(c1ccccc1)CC2(C)C)c1ccc(CCC(=O)OC)cc1 (stereo not drawn) [Example 748, methyl 3-(4-(1-(((7,7-dimethyl-5-phenyl-4,5,6,7-tetrahydropyrazolo[1,5-a]pyrimidin-3-yl)carbonyl)amino)-1-ethyl-propyl)phenyl)propanoate]	147 to 148 °C
CCC1(NC(=O)c2cnn3c2NC(c2ccccc2)CC3(C)C)CC[S+]([O-])CC1 (stereo not drawn) [Example 623, N-(4-ethyl-1-oxidotetrahydro-2H-thiopyran-4-yl)-7,7-dimethyl-5-phenyl-4,5,6,7-tetrahydropyrazolo[1,5-a]pyrimidine-3-carboxamide]	172 to 173 °C
CCC1(CC)C[C@H](OCc2ccccc2)CN1C(=O)c1cnn2c1N[C@H](c1ccccc1)CC2(C)C [Example 1109, (5S)-3-(((4S)-4-(benzyloxy)-2,2-diethy-1-pyrrolidinyl)carbonyl)-7,7-dimethyl-5-phenyl-4,5,6,7-tetrahydropyrazolo[1,5-a]pyrimidine]	116 to 118 °C
CCC(CC)(NC(=O)c1cnn2c1NC(c1ccccc1)CC2C(F)(F)F)c1cccc(Br)c1 (stereo not drawn) [Example 398, N-(1-(3-bromophenyl)-1-ethylpropyl)-5-phenyl-7-(trifluoromethyl)-4,5,6,7-tetrahydropyrazolo[1,5-a]pyrimidine-3-carboxamide]	167 to 168 °C
CC1(C)CC(c2ccccc2)Nc2c(C(=O)NC(c3ccc(C(F)(F)F)cc3)(C3CCCCC3)C3CCCCC3)cnn21 (stereo not drawn) [Example 412, N-(dicyclohexyl(4-(trifluoromethyl)phenyl)methyl)-7,7-dimethyl-5-phenyl-4,5,6,7-tetrahydropyrazolo[1,5-a]pyrimidine-3-carboxamide]	146 to 147 °C
O=C(O)c1cnn2c1NC(c1ccc3ccccc3c1)CC2C(F)(F)F (stereo not drawn) [Example 22, 5-(2-naphthyl)-7-(trifluoromethyl)-4,5,6,7-tetrahydropyrazolo[1,5-a]pyrimidine-3-carboxylic acid]	143 to 145 °C
CCC(CC)(NC(=O)c1c(C)nn2c1NC(c1cccc(OC)c1)CC2(C)C)c1ccc(C)cc1 (stereo not drawn) (as salt: HCl) [Example 966, N-(1-ethyl-1-(4-methylphenyl)propyl)-5-(3-methoxyphenyl)-2,7,7-trimethyl-4,5,6,7-tetrahydropyrazolo[1,5-a]pyrimidine-3-carboxamide]	146 °C
Cc1nn2c(c1C(=O)OC1C(C)(C)[C@H]3CC[C@]1(C)C3)NC(c1ccccc1)CC2(C)C (stereo partly drawn) (as salt: HCl) [Example 1141, (1R,4S)-1,3,3-trimethylbicyclo[2.2.1]hept-2-yl 2,7,7-trimethyl-5-phenyl-4,5,6,7-tetrahydropyrazolo[1,5-a]pyrimidine-3-carboxylate]	149 to 150 °C
CCC(CC)(NC(=O)c1cnn2c1NC(c1ccccc1)CC2(C)C)c1ccc(C)c(C)c1 (stereo not drawn) (as salt: HCl) [Example 769, N-(1-(3,4-dimethylphenyl)-1-ethylpropyl)-7,7-dimethyl-5-phenyl-4,5,6,7-tetrahydropyrazolo[1,5-a]pyrimidine-3-carboxamide]	137 to 138 °C
CC(C)(Cc1ccc2ccccc2c1)NC(=O)c1cnn2c1NC(c1ccccc1)CC2C(F)(F)F (stereo not drawn) [Example 272, N-(1,1-dimethyl-2-(2-naphthyl)ethyl)-5-phenyl-7-(trifluoromethyl)-4,5,6,7-tetrahydropyrazolo[1,5-a]pyrimidine-3-carboxamide]	187 to 188 °C
CCC(CC)(NC(=O)c1cnn2c1NC(c1ccccc1)CC2(C)C)c1ccc(-c2ccc(OC)nc2)cc1 (stereo not drawn) [Example 677, N-(1-ethyl-1-(4-(6-methoxy-3-pyridinyl)phenyl)propyl)-7,7-dimethyl-5-phenyl-4,5,6,7-tetrahydropyrazolo[1,5-a]pyrimidine-3-carboxamide]	172 to 173 °C
CCC(CC)(NC(=O)c1c(C)nn2c1N[C@@H](c1ccccc1)CC2(C)C)c1ccc(Cl)c(C)c1 (as salt: HCl) [Example 1068, (5R)-N-(1-(4-chloro-3-methylphenyl)-1-ethylpropyl)-2,7,7-trimethyl-5-phenyl-4,5,6,7-tetrahydropyrazolo[1,5-a]pyrimidine-3-carboxamide]	150 to 151 °C
CCC(CC)(NC(=O)c1cnn2c1NC(c1ccccc1)CC2(C)C)c1ccc(CO)cc1 (stereo not drawn) [Example 739, N-(1-ethyl-1-(4-(hydroxymethyl)phenyl)propyl)-7,7-dimethyl-5-phenyl-4,5,6,7-tetrahydropyrazolo[1,5-a]pyrimidine-3-carboxamide]	178 to 179 °C
CCC(CC)(NC(=O)c1cnn2c1NC(c1cccc(OC)n1)CC2(C)C)c1ccc(F)cc1 (stereo not drawn) [Example 603, N-(1-ethyl-1-(4-fluorophenyl)propyl)-5-(6-methoxy-2-pyridinyl)-7,7-dimethyl-4,5,6,7-tetrahydropyrazolo[1,5-a]pyrimidine-3-carboxamide]	156 to 157 °C
CC1(C)CC(c2ccccc2)Nc2c(C(=O)NC(C3CCCCC3)C3CCCCC3)cnn21 (stereo not drawn) [Example 433, N-(dicyclohexylmethyl)-7,7-dimethyl-5-phenyl-4,5,6,7-tetrahydropyrazolo[1,5-a]pyrimidine-3-carboxamide]	187 to 188 °C
